In this assay the test system is MV-4-11 cells. The assay can be described thus: Gene expression microarray analysis (Affymetrix PrimeView) and GSEA. In kind it is cell-based, human. Set-up: RFU PODN (11730768_x_at) / Fold change /veh PODN (11730768_x_at) / RFU LINC00158 (11744669_a_at) / Fold change /veh LINC00158 (11744669_a_at) / RFU DUSP10 (11751237_a_at) / Fold change /veh DUSP10 (11751237_a_at) / RFU ID3 (11757404_x_at) / Fold change /veh ID3 (11757404_x_at) / RFU PLEKHG5 (11737974_s_at) / Fold change /veh PLEKHG5 (11737974_s_at) / RFU LRRC4B (11730491_at) / Fold change /veh LRRC4B (11730491_at) / RFU GIMAP4 (11747438_a_at) / Fold change /veh GIMAP4 (11747438_a_at) / RFU KRT8 (11758183_x_at) / Fold change /veh KRT8 (11758183_x_at) / RFU CNN1 (11734310_a_at) / Fold change /veh CNN1 (11734310_a_at) / RFU VPS37D (11726825_at) / Fold change /veh VPS37D (11726825_at) / RFU C10orf10 (11716522_x_at) / Fold change /veh C10orf10 (11716522_x_at) / RFU KIR2DL2 /// KIR2DL4 /// KIR2DL5A /// KIR2DL5B /// KIR2DS1 /// KIR2DS2 /// KIR2DS3 /// KIR2DS4 /// KIR3DL3 /// KIR3DL3 /// KIR3DS1 (11738374_at) / Fold change /veh KIR2DL2 /// KIR2DL4 /// KIR2DL5A /// KIR2DL5B /// KIR2DS1 /// KIR2DS2 /// KIR2DS3 /// KIR2DS4 /// KIR3DL3 /// KIR3DL3 /// KIR3DS1 (11738374_at) / RFU C1QL1 (11718748_at) / Fold change /veh C1QL1 (11718748_at) / RFU TMPRSS4 (11747572_a_at) / Fold change /veh TMPRSS4 (11747572_a_at) / RFU HAMP (11756126_x_at) / Fold change /veh HAMP (11756126_x_at) / RFU RNFT2 (11725882_a_at) / Fold change /veh RNFT2 (11725882_a_at) / RFU NR4A2 (11747474_a_at) / Fold change /veh NR4A2 (11747474_a_at) / RFU ABCC12 (11746883_a_at) / Fold change /veh ABCC12 (11746883_a_at) / RFU TMEM136 (11760407_x_at) / Fold change /veh TMEM136 (11760407_x_at) / RFU CLDN22 /// WWC2 (11732394_at) / Fold change /veh CLDN22 /// WWC2 (11732394_at) / RFU HLA-DPB1 (11760878_x_at) / Fold change /veh HLA-DPB1 (11760878_x_at) / RFU SPINT1 (11716480_a_at) / Fold change /veh SPINT1 (11716480_a_at) / RFU GAP43 (11754022_s_at) / Fold change /veh GAP43 (11754022_s_at) / RFU A4GNT (11735810_at) / Fold change /veh A4GNT (11735810_at) / RFU PRB3 (11715151_x_at) / Fold change /veh PRB3 (11715151_x_at) / RFU TUBB4B (11761932_at) / Fold change /veh TUBB4B (11761932_at) / RFU CAPN14 (11732068_a_at) / Fold change /veh CAPN14 (11732068_a_at) / RFU TMCC2 (11721928_a_at) / Fold change /veh TMCC2 (11721928_a_at) / RFU IRGQ (11745062_a_at) / Fold change /veh IRGQ (11745062_a_at) / RFU FAM174B (11720279_a_at) / Fold change /veh FAM174B (11720279_a_at) / RFU TMPRSS4 (11748680_a_at) / Fold change /veh TMPRSS4 (11748680_a_at) / RFU FAM212B (11763350_a_at) / Fold change /veh FAM212B (11763350_a_at) / RFU PLEKHG5 (11743358_a_at) / Fold change /veh PLEKHG5 (11743358_a_at) / RFU ZSCAN30 (11745921_a_at) / Fold change /veh ZSCAN30 (11745921_a_at) / RFU CMKLR1 (11741424_a_at) / Fold change /veh CMKLR1 (11741424_a_at) / RFU LOC101060620 /// MAPK8IP1 (11723275_at) / Fold change /veh LOC101060620 /// MAPK8IP1 (11723275_at) / RFU SPTSSB (11747773_x_at) / Fold change /veh SPTSSB (11747773_x_at) / RFU PRSS12 (11739890_at) / Fold change /veh PRSS12 (11739890_at) / RFU BIN1 (11741810_x_at) / Fold change /veh BIN1 (11741810_x_at) / RFU WNT11 (11732464_a_at) / Fold change /veh WNT11 (11732464_a_at) / RFU C10orf10 (11716521_a_at) / Fold change /veh C10orf10 (11716521_a_at) / RFU C5orf56 (11738089_at) / Fold change /veh C5orf56 (11738089_at) / RFU CYB561 (11721691_x_at) / Fold change /veh CYB561 (11721691_x_at) / RFU ANKRD19P (11752326_a_at) / Fold change /veh ANKRD19P (11752326_a_at) / RFU OR2T12 /// OR2T33 /// OR2T8 (11738714_s_at) / Fold change /veh OR2T12 /// OR2T33 /// OR2T8 (11738714_s_at) / RFU VCAN (11748164_a_at) / Fold change /veh VCAN (11748164_a_at) / RFU JSRP1 (11732532_at) / Fold change /veh JSRP1 (11732532_at) / RFU KRTAP10-11 (11738290_x_at) / Fold change /veh KRTAP10-11 (11738290_x_at) / RFU MYO3A (11730013_a_at) / Fold change /veh MYO3A (11730013_a_at) / RFU EBF3 (11725865_a_at) / Fold change /veh EBF3 (11725865_a_at) / RFU CAMK2N1 (11719241_x_at) / Fold change /veh CAMK2N1 (11719241_x_at) / RFU C5orf56 (11738088_a_at) / Fold change /veh C5orf56 (11738088_a_at) / RFU OLFML3 (11715873_a_at) / Fold change /veh OLFML3 (11715873_a_at) / RFU LOC100653217 /// NTM (11731650_a_at) / Fold change /veh LOC100653217 /// NTM (11731650_a_at) / RFU MAPK11 (11762145_a_at) / Fold change /veh MAPK11 (11762145_a_at) / RFU FIZ1 (11724087_x_at) / Fold change /veh FIZ1 (11724087_x_at) / RFU OASL (11726364_x_at) / Fold change /veh OASL (11726364_x_at) / RFU SOX15 (11748057_x_at) / Fold change /veh SOX15 (11748057_x_at) / RFU CD79A (11719716_a_at) / Fold change /veh CD79A (11719716_a_at) / RFU HIST1H1D (11736915_at) / Fold change /veh HIST1H1D (11736915_at) / RFU CASKIN2 (11723855_a_at) / Fold change /veh CASKIN2 (11723855_a_at) / RFU LOC730098 (11760151_x_at) / Fold change /veh LOC730098 (11760151_x_at) / RFU OR4N2 (11742367_at) / Fold change /veh OR4N2 (11742367_at) / RFU PRRT2 (11749266_a_at) / Fold change /veh PRRT2 (11749266_a_at) / RFU SNX32 (11753110_a_at) / Fold change /veh SNX32 (11753110_a_at) / RFU CDHR5 (11726645_a_at) / Fold change /veh CDHR5 (11726645_a_at) / RFU RCAN1 (11760418_a_at) / Fold change /veh RCAN1 (11760418_a_at) / RFU FAM167A (11723789_a_at) / Fold change /veh FAM167A (11723789_a_at) / RFU FAM26E (11764081_at) / Fold change /veh FAM26E (11764081_at) / RFU ISYNA1 (11749810_s_at) / Fold change /veh ISYNA1 (11749810_s_at) / RFU ACY1 (11761880_at) / Fold change /veh ACY1 (11761880_at) / RFU 11764098_at / Fold change /veh 11764098_at / RFU SAMD14 (11745864_x_at) / Fold change /veh SAMD14 (11745864_x_at) / RFU NPB (11741838_a_at) / Fold change /veh NPB (11741838_a_at) / RFU TMPRSS6 (11731388_a_at) / Fold change /veh TMPRSS6 (11731388_a_at) / RFU KRTAP10-2 (11738614_at) / Fold change /veh KRTAP10-2 (11738614_at) / RFU ARHGAP8 /// PRR5-ARHGAP8 (11727945_x_at) / Fold change /veh ARHGAP8 /// PRR5-ARHGAP8 (11727945_x_at) / RFU KRTAP5-7 /// NADSYN1 (11734609_at) / Fold change /veh KRTAP5-7 /// NADSYN1 (11734609_at) / RFU RASL12 (11751679_a_at) / Fold change /veh RASL12 (11751679_a_at) / RFU CDKN2B (11736163_a_at) / Fold change /veh CDKN2B (11736163_a_at) / RFU PRF1 (11729649_at) / Fold change /veh PRF1 (11729649_at) / RFU, ZNF638 /// ZNF638-IT1 / Fold change vs veh, ZNF638 /// ZNF638-IT1 / RFU, PANK3 / Fold change vs veh, PANK3 / RFU, SH3YL1 / Fold change vs veh, SH3YL1 / RFU, ZEB2 / Fold change vs veh, ZEB2 / RFU, NRIP1 / Fold change vs veh, NRIP1 / RFU, PTTG1IP / Fold change vs veh, PTTG1IP / RFU, CAPN2 / Fold change vs veh, CAPN2 / RFU, MED14 / Fold change vs veh, MED14 / RFU, SNORA58 / Fold change vs veh, SNORA58 / RFU, C1orf63 / Fold change vs veh, C1orf63 / RFU, LRRFIP1 / Fold change vs veh, LRRFIP1 / RFU, NDUFAF7 / Fold change vs veh, NDUFAF7 / RFU, SLC12A2 / Fold change vs veh, SLC12A2 / RFU, IBTK / Fold change vs veh, IBTK / RFU, ESF1 / Fold change vs veh, ESF1 / Fold change vs veh, TMEM50B / RFU, TAOK1 / Fold change vs veh, TAOK1 / RFU, ACBD3 / Fold change vs veh, ACBD3 / RFU, TMA16 / Fold change vs veh, TMA16 / RFU, RWDD3 / Fold change vs veh, RWDD3 / RFU, BCAT1 / Fold change vs veh, BCAT1 / RFU, EDEM3 / Fold change vs veh, EDEM3 / RFU, TMEM33 / Fold change vs veh, TMEM33 / RFU, WDR75 / Fold change vs veh, WDR75 / RFU, AHCTF1 / Fold change vs veh, AHCTF1 / RFU, TFRC / Fold change vs veh, TFRC / RFU, ZDHHC17 / Fold change vs veh, ZDHHC17 / RFU, NOM1 / Fold change vs veh, NOM1 / RFU, ARL8B / Fold change vs veh, ARL8B / RFU, ZBTB11 / Fold change vs veh, ZBTB11 / RFU, TAMM41 / Fold change vs veh, TAMM41 / RFU, KIAA1704 /// LOC100996395 / Fold change vs veh, KIAA1704 /// LOC100996395 / RFU, ING1 / Fold change vs veh, ING1 / RFU, TRMT61B / Fold change vs veh, TRMT61B / RFU, FUBP3 / Fold change vs veh, FUBP3 / RFU, TP53 / Fold change vs veh, TP53 / RFU, TNKS2 / Fold change vs veh, TNKS2 / RFU, ZFP14 / Fold change vs veh, ZFP14 / RFU, ACTR2 / Fold change vs veh, ACTR2 / RFU, PPP3R1 / Fold change vs veh, PPP3R1 / RFU, PIK3R1 / Fold change vs veh, PIK3R1 / RFU, HNRNPA1 / Fold change vs veh, HNRNPA1 / RFU, RNF170 / Fold change vs veh, RNF170 / RFU, ZNF28 / Fold change vs veh, ZNF28 / RFU, RNGTT / Fold change vs veh, RNGTT / RFU, OGT / Fold change vs veh, OGT / RFU, BRD1 / Fold change vs veh, BRD1 / RFU, MARS / Fold change vs veh, MARS / RFU, ZNF655 / Fold change vs veh, ZNF655 / RFU, FAHD1 / Fold change vs veh, FAHD1 / RFU, BDP1 / Fold change vs veh, BDP1 / RFU, LRRCC1 / Fold change vs veh, LRRCC1 / RFU, ARID1A / Fold change vs veh, ARID1A / RFU, ZNF146 / Fold change vs veh, ZNF146 / RFU, ZNF330 / Fold change vs veh, ZNF330 / RFU, GPN3 / Fold change vs veh, GPN3 / RFU, C9orf123 / Fold change vs veh, C9orf123 / RFU, N4BP2L2 / Fold change vs veh, N4BP2L2 / RFU, ARFIP1 / Fold change vs veh, ARFIP1 / RFU, FAM179B / Fold change vs veh, FAM179B / RFU, BCL10 / Fold change vs veh, BCL10 / RFU, UHRF1BP1L / Fold change vs veh, UHRF1BP1L / RFU, BET1 / Fold change vs veh, BET1 / RFU, CNOT2 / Fold change vs veh, CNOT2 / RFU, ZNF268 / Fold change vs veh, ZNF268 / Fold change vs veh, ZNF507 / RFU, DGCR2 / Fold change vs veh, DGCR2 / RFU, WDSUB1 / Fold change vs veh, WDSUB1 / Fold change vs veh, HSP90B1 /// MIR3652 / RFU, ADSS / Fold change vs veh, ADSS / RFU, GK / Fold change vs veh, GK / RFU, ZNF148 / Fold change vs veh, ZNF148 / RFU, TAF9 / Fold change vs veh, TAF9 / RFU, SLC1A5 / Fold change vs veh, SLC1A5 / RFU, SLMO2 / Fold change vs veh, SLMO2 / RFU, ABCC4 / Fold change vs veh, ABCC4 / RFU, LOC101060439 /// RAP1B / Fold change vs veh, LOC101060439 /// RAP1B / RFU, RFX7 / Fold change vs veh, RFX7 / RFU, GTPBP10 / Fold change vs veh, GTPBP10 / RFU, CNEP1R1 / Fold change vs veh, CNEP1R1 / RFU, BIVM-ERCC5 /// ERCC5 / Fold change vs veh, BIVM-ERCC5 /// ERCC5 / RFU, ILF3 / Fold change vs veh, ILF3 / RFU 11762660_at / Fold change /veh 11762660_at / RFU VCAN (11757783_s_at) / Fold change /veh VCAN (11757783_s_at) / RFU DDX43 (11728927_at) / Fold change /veh DDX43 (11728927_at) / RFU KRT8 (11758188_x_at) / Fold change /veh KRT8 (11758188_x_at) / RFU NKD1 (11759106_at) / Fold change /veh NKD1 (11759106_at) / RFU SRD5A1 (11742802_a_at) / Fold change /veh SRD5A1 (11742802_a_at) / RFU TPSAB1 /// TPSB2 (11721975_s_at) / Fold change /veh TPSAB1 /// TPSB2 (11721975_s_at) / RFU GSTM3 (11746129_a_at) / Fold change /veh GSTM3 (11746129_a_at) / RFU IL23R (11737362_x_at) / Fold change /veh IL23R (11737362_x_at) / RFU TMEM51 (11727254_a_at) / Fold change /veh TMEM51 (11727254_a_at) / RFU PIWIL2 (11732686_x_at) / Fold change /veh PIWIL2 (11732686_x_at) / RFU ORM1 (11744905_x_at) / Fold change /veh ORM1 (11744905_x_at) / RFU CCDC152 (11743942_at) / Fold change /veh CCDC152 (11743942_at) / RFU ECM1 (11717891_a_at) / Fold change /veh ECM1 (11717891_a_at) / RFU IL23R (11748794_a_at) / Fold change /veh IL23R (11748794_a_at) / RFU TNFAIP8L3 (11732012_x_at) / Fold change /veh TNFAIP8L3 (11732012_x_at) / RFU MBOAT4 (11741988_at) / Fold change /veh MBOAT4 (11741988_at) / RFU 11764193_at / Fold change /veh 11764193_at / RFU TMEM53 (11763286_at) / Fold change /veh TMEM53 (11763286_at) / RFU MAGEB2 (11727129_at) / Fold change /veh MAGEB2 (11727129_at) / RFU TMEM200A (11744735_a_at) / Fold change /veh TMEM200A (11744735_a_at) / RFU CCDC152 (11751479_a_at) / Fold change /veh CCDC152 (11751479_a_at) / RFU FAM211A (11726209_a_at) / Fold change /veh FAM211A (11726209_a_at) / RFU RGS16 (11746705_a_at) / Fold change /veh RGS16 (11746705_a_at) / RFU VCAN (11755009_s_at) / Fold change /veh VCAN (11755009_s_at) / RFU RHOB (11743442_s_at) / Fold change /veh RHOB (11743442_s_at) / RFU RGS16 (11720943_a_at) / Fold change /veh RGS16 (11720943_a_at) / RFU RGS16 (11720944_at) / Fold change /veh RGS16 (11720944_at) / RFU, VPS4B / Fold change vs veh, VPS4B / RFU, CREB1 / Fold change vs veh, CREB1 / RFU, DNAJC13 / Fold change vs veh, DNAJC13 / RFU, GNAQ / Fold change vs veh, GNAQ / RFU, CDK5R1 / Fold change vs veh, CDK5R1 / RFU, ZRANB3 / Fold change vs veh, ZRANB3 / RFU, CUL4A / Fold change vs veh, CUL4A / RFU, CCNY / Fold change vs veh, CCNY / RFU, UFL1 / Fold change vs veh, UFL1 / RFU, COG3 / Fold change vs veh, COG3 / RFU, DIAPH2 / Fold change vs veh, DIAPH2 / RFU, SKA2 / Fold change vs veh, SKA2 / RFU, AFF3 / Fold change vs veh, AFF3 / RFU, LMF1 / Fold change vs veh, LMF1 / RFU, IPO11 / Fold change vs veh, IPO11 / RFU, DFFB / Fold change vs veh, DFFB / RFU, FOXP1 / Fold change vs veh, FOXP1 / RFU, CARD8 / Fold change vs veh, CARD8 / RFU, STRN3 / Fold change vs veh, STRN3 / RFU, ADK / Fold change vs veh, ADK / RFU, RASSF2 / Fold change vs veh, RASSF2 / RFU, WIPF1 / Fold change vs veh, WIPF1 / RFU, LARP1B / Fold change vs veh, LARP1B / RFU, RASA1 / Fold change vs veh, RASA1 / RFU, RB1 / Fold change vs veh, RB1 / RFU, PPFIA1 / Fold change vs veh, PPFIA1 / RFU, MAT2A / Fold change vs veh, MAT2A / RFU, CCT5 / Fold change vs veh, CCT5 / RFU, WDR92 / Fold change vs veh, WDR92 / RFU, CUX1 / Fold change vs veh, CUX1 / RFU, TTC7A / Fold change vs veh, TTC7A / RFU, TMEM135 / Fold change vs veh, TMEM135 / RFU, DEPTOR / Fold change vs veh, DEPTOR / RFU, CPM / Fold change vs veh, CPM / RFU, DNAJB6 / Fold change vs veh, DNAJB6 / RFU, CACNA2D3 / Fold change vs veh, CACNA2D3 / RFU, DTX4 / Fold change vs veh, DTX4 / RFU, TFCP2 / Fold change vs veh, TFCP2 / RFU, GMCL1 /// GMCL1P1 / Fold change vs veh, GMCL1 /// GMCL1P1 / RFU, AEBP2 / Fold change vs veh, AEBP2 / RFU, SNHG1 /// SNORD22 /// SNORD25 /// SNORD26 /// SNORD27 /// SNORD28 /// SNORD29 /// SNORD31 / Fold change vs veh, SNHG1 /// SNORD22 /// SNORD25 /// SNORD26 /// SNORD27 /// SNORD28 /// SNORD29 /// SNORD31 / Fold change (Aza/veh), C12orf56 (ProbeSet 11735607_a_at) / Fold change (ACY-1035/veh), C12orf56 (ProbeSet 11735607_a_at) / Fold change (Aza/veh), FGFR1OP (ProbeSet 11751329_s_at) / Fold change (ACY-1035/veh), FGFR1OP (ProbeSet 11751329_s_at) / Fold change (Aza/veh), VPS36 (ProbeSet 11739960_a_at) / Fold change (ACY-1035/veh), VPS36 (ProbeSet 11739960_a_at) / RFU SYPL1 (11715823_x_at) / Fold change /veh SYPL1 (11715823_x_at) / RFU IGFBP7 (11715501_s_at) / Fold change /veh IGFBP7 (11715501_s_at) / RFU REEP3 (11722064_at) / Fold change /veh REEP3 (11722064_at) / RFU IGLL1 (11728026_x_at) / Fold change /veh IGLL1 (11728026_x_at): dose or concentration left out as unconfirmed. The settings on record: MV-4-11 cells, 48 hours.

For `Nc1ccc(-c2cccs2)cc1NC(=O)c1ccc2c(c1)cc(C1CC1)n2CCN1CCOCC1` [ACY-1035], the “Fold change /veh 11764098_at” value is on record as 1.17.

(Values after publication PMC5218480 (PLoS ONE, 2017).)
